The target of the test is Csd4 (Helicobacter pylori, UniProt B5ZAD9). Description: crystal structure at […] Å. Format: biochemical.

As usually defined, the Ki is a dissociation constant, usually derived from enzyme kinetics or from competition with a known ligand. The compound `CC(=O)N[C@H](CCP(=O)(O)CC(CCC[C@@H](N)C(=O)O)C(=O)O)C(=O)O` (mixture of isomers) [compound 1, inhibitor 1] came in with a Ki of 1500 ± 300 nM.

Source of the values: PMC4849550 (ACS chemical biology, 2016).
